Experimental data: patent US12662707B2, “MYC amplification drives resistance to pan-RAS inhibitors in pancreatic cancer” (The Trustees of Columbia University in the City of New York, priority 2024, dated 2026)

Key:
[1] = Tumor versus blood concentrations, all model systems tested; assay type: in vivo; settings: BALB/c, C57Bl/6, KPF/FC, mouse, tumor vs whole blood, oral, read-out: Kp (concentration in tumor tissues vs blood)
Protocol: Whole blood, tumor, colon and skin tissue concentrations of RMC-7977 were determined using liquid chromatography-tandem mass spectrometry (LC-MS/MS) methods. […] After thorough mixing and centrifugation, the supernatant was directly analyzed on a Sciex 6500+ triple quadrupole mass spectrometer equipped with an ACQUITY or Shimadzu UPLC system. An ACQUITY UPLC BEH C18 or C4 […] (2.1×50 mm) column was used with gradient elution for compound separation. RMC-7977 and IS (verapamil or terfenadine) were detected by positive electrospray ionization using multiple reaction monitoring (RMC-7977: m/z 865.4/706.4 or m/z 865.3/833.5; verapamil: m/z 455.2/164.9; terfenadine: m/z 472.3/436.4). […] BA analysis on blood and tissue samples from xenograft models was run at Wuxi AppTec. BA analysis on blood and tissue samples from allograft models and GEMM was run at Revolution Medicines.

Myc protein levels = experiment: Western blot of Myc in resistant and naive KPC cell lines; assay type: cell-based, murine; settings: 100 nM, 24 hours
Protocol: Cells were seeded at 7.5×10^5-4×10^6 cells per well in 6-well plates or 100 mm dishes in growth medium. After overnight incubation, indicated compound (RMC-7977, IAG933 or DMSO (0.1% v/v)) were added and incubated for the indicated time points. Cells were washed twice with ice-cold PBS and lysed with NP-40 lysis buffer (Thermo Fisher Scientific, J60766), MSD Tris Lysis Buffer (MSD, R60TX-2), RIPA buffer (50 mM TRIS-HCl, pH 7.5, 150 mM NaCl, 1% NP-40, 0.5% sodium deoxycholate, 0.1% SDS) or a lysis buffer containing 1% Triton X-100, 20 mM Tris-HCl, 150 mM NaCl, and 1 mM EDTA. All lysis buffers were supplemented with protease and phosphatase inhibitors. Lysates were scraped and collected before centrifugation at 21,000×g for 10 minutes at 4° C. The protein-containing supernatants were quantified by BCA assay (Pierce, 23225) and equal quantities of protein were denatured with LDS and reducing agent at 95° C. Samples were resolved on 12% or 4-12% Bis-Tris polyacrylamide gels, then transferred to a nitrocellulose or PVDF membrane using the iBlot 2.0 system or wet transfer. Membranes were blocked in Intercept TBS buffer (LiCor, 927-60001) or 3-5% milk before probing with primary antibodies overnight at 4° C. Secondary antibodies were added as appropriate, and the membranes were imaged on a LiCor Odyssey imager. […]

[2] = test system: KPC tumor-derived cell lines; experiment: Viability of cell lines from RMC-7977 resistant or naive KPC tumors; assay type: cell-based, murine
Text: Patient-derived xenograft (PDX) human PDAC cell lines were provided by Dr. Anirban Maitra (MD Anderson Cancer Center): Pa01C, Pa02C, Pa14C, and Pa16C. hF39 and hF43 cell lines were provided by Dr. David Tuveson (Cold Spring Harbor Laboratory). The UM147 PDX cell line was obtained from University of Michigan (PMID: 17283135). PaCaDD-137 and PaCaDD-165 were obtained from the German Collection of Microorganisms and Cell Cultures GmbH (DSMZ, world wide web dsmz.de/). All remaining cell lines were obtained from the American Type Culture Collection (ATCC). […]
PDAC murine cell lines harboring KrasG12D or KrasG12C mutations were seeded at 2×10^3 in a 96-well plate. […] Cell viability was evaluated 72 hours later by measuring adenosine triphosphate (ATP) levels using the CellTiter-Glo® Luminescent Cell Viability Assay (Promega, G7572) according to the manufacturer's instructions. For experiments comparing naive and resistant cell lines, live cells were fluorescently labelled using Calcein AM (20-minute incubation at 500 nM, Thermo Fisher) and counted using the SpectraMax i3X multimode detection platform (Molecular Devices). […] Growth percentage was calculated by normalizing drug-treated values to DMSO control, which was set to 100%. […]

[3] = test system: normal tissues (colon, skin, liver, intestines, lungs, kidneys); experiment: IHC and histopathology of normal tissues of KPC mice; assay type: in vivo, mouse
Protocol: Tumor formation in KPC mice was monitored by bi-weekly palpation. […] Treatments were performed every other day via oral gavage for 1 week. […] Following two consecutive ultrasounds, RMC-7977-treated animals were sacrificed either 4 (n=7) or 24 hours (n=4) after last dose and Vehicle-treated animals were sacrificed between 4-24 hours post last dose. Tissue was harvested and preserved as previously described (See Xenograft studies section). Additional group of KPC mice was also treated with a single dose of RMC-7977 (n=10) or Vehicle (n=3) and tissues were harvested at 4 or 24 hours post dose as previously described. All tissues were fixed for up to 24 hours using 10% neutral buffered formalin and then moved to 70% ethanol for long term storage. All stainings were performed on 4-μm tissue sections. Sections were deparaffinized using a Leica XL ST5010 autostainer, after which slides were subjected to heat-activated epitope retrieval. […] Slides were further blocked in serum for 1 hour, and primary antibodies were added for overnight incubation at 4° C. […] Following incubation, ImmPACT DAB peroxidase (Vector Laboratories, SK-4100) was used to develop the stain and hematoxylin was used as nuclear counterstain. Stained slides were imaged at 40× magnification. Quantitative analyses of IHC images were performed using ImageJ.

Compound: CCn1c(-c2cc(N3CCN(C4CC4)CC3)cnc2[C@H](C)OC)c2c3cc(ccc31)-c1csc(n1)C[C@H](NC(=O)[C@H]1[C@@H]3COC[C@@H]31)C(=O)N1CCC[C@H](N1)C(=O)OCC(C)(C)C2 [RMC-7977]
- Kp [1]: > 1
- Myc protein levels (Myc protein levels; two RMC-7977 Naive lines): fully inhibited
- Myc protein levels (Myc protein levels; two Resistant lines): incompletely reduced
- sensitivity of treatment-naive MycGain line K2293 ([2]; K2293): lower sensitivity
- sensitivity of lines from resistant tumors vs control KPC cell line (K8484) ([2]; all six lines from resistant tumors, 3-5 days): less sensitive
- effects on apoptosis (CC3) and proliferation (Cyclin A2) in colon and skin ([3]; SD, 1 Wk and EP KPC mice, all timepoints): absent or negligible
- treatment-associated histopathological feature ([3]; proximal intestines of half the treated animals, no diarrhea or weight loss): modest increase in apoptosis
